In patent publication US6369226B1, “Substituted benzamide inhibitors of rhinovirus 3C protease” (Agouron Pharmaceuticals, Inc., priority 1999, dated 2002):
Like-named read-outs stand apart in the source and are kept apart here.

Experiments:
HRV-14 3CP = biological target: T1, HRV-14 3CP (Human rhinovirus 14, UniProt P03303); test: 3CP enzyme inhibition assay; assay type: biochemical; details: for kinact/KI: read-out: Kobs/[I]
T1 construct: The 2A and 3C protease (3CP) process this polyprotein into its functional viral proteins in HRV
T1 sequence (P03303 1538-1719): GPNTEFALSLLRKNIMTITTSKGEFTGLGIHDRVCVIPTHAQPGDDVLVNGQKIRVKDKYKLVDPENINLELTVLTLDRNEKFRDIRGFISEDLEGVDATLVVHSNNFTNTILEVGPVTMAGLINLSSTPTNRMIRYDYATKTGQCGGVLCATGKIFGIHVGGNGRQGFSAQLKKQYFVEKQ
Description: 3CP Inhibition Assays and Antiviral Assays The details of the 3CP enzyme assays used and the antiviral assays used are outlined in Dragovich, P. S., Webber, S. E, Babine, R. E., Fuhrman, S. A., Patick, A. K., Matthews, D. A., Lee, C. A., Reich, S. H., Prins, T. J., Marakovits, J. T., Littlefield, E. S., Zhou, R., Tikhe, J., Ford, C. E., Wallace, M. B., Meador, III, J. W., Ferre, R., Brown, E. L., Binford, S. L, Harr, , J. E. V., DeLisle, D. M. and Worland, S. T. Structure-Based Design, Synthesis, and Biological Evaluation of Irreversible Human Rhinovirus 3C Protease Inhibitors. 1. Michael Acceptor Structure-Activity Studies J. Med. Chem. 1998,41, 2806, the disclosure of which is incorporated by reference herein.

HRV-14 = test: antiviral cytopathic effect assay employing H1-HeLa cells infected with HRV-14; assay type: cell-based, human rhinovirus serotype 14; details: for EC50: Rhinovirus B, HRV14, H1-HeLa
[1] = cytotoxicity (CC50) in the antiviral cell culture assay; details: human
3CP = biological target: T2, 3CP (Human rhinovirus 14, UniProt P03303); test: loss of 3CP inhibitory activity after exposure of compound to DTT; assay type: biochemical; details: for DTT inhib.: loss of 3CP inhibitory activity after exposure to 5 mM DTT for 2-3 min at 23° C.
T2 construct: The 2A and 3C protease (3CP) process this polyprotein into its functional viral proteins in HRV
T2 sequence (P03303 1538-1719): as above
Procedure: With this information in hand, additional esters were prepared and tested. It was anticipated that by filling the active site in the prime direction (S1′-S2′), additional affinity might be obtained. […] To determine whether the activity of the parent compound 1 was due to the inherent reactivity of the unsaturated ester, alternative substitutions were examined in the 1-position corresponding to the S1 recognition pocket. […] (Webber, S. E., Tikhe, J., Worland, S. T., Fuhrman, S. A., Hendrickson, T. F., Matthews, D. A., Love, R. A., Patick, A. K., Meador, J. W., Ferre, R. A., Brown, E. L., DeLisle, D. M., Ford, C. E., Binford, S. L. Design, Synthesis, and Evaluation of Nonpeptidic Inhibitors of Human Rhinovirus 3C Protease. J. Med. Chem. 1996, 39, 5072-5082.) Increased activation of the Michael acceptor toward nucleophilic addition, by alpha cyano substitution, led to a modest but reversible inhibitor, compound 9. Various unsaturated imides, also expected to be more reactive than an unsaturated ester, were poor inhibitors. Exploration of α,β-unsaturated ketones led to some interesting findings. […] When tested in the antiviral assay, ketones in general had greater toxicity (lower CC50) and no measurable antiviral effect. […] (Dragovich, P. S., Webber, S. E, Babine, R. E., Fuhrman, S. A., Patick, A. K., Matthews, D. A., Lee, C. A., Reich, S. H., Prins, T. J., Marakovits, J. T., Littlefield, E. S., Zhou, R., Tikhe, J., Ford, C. E., Wallace, M. B., Meador, III, J. W., Ferre, R., Brown, E. L., Binford, S. L, Harr, J.E. V., DeLisle, D. M. and Worland, S. T. Structure-Based Design, Synthesis, and Biological Evaluation of Irreversible Human Rhinovirus 3C Protease Inhibitors. 1. Michael Acceptor Structure-Activity Studies J. Med. Chem. 1998,41, 2806.) Electron-donating substituents at the 4-position of the phenyl ketone (4-Me2N—, 4-MeO—), were expected to make the ketones less reactive, however, no effect on their inactivation with DTT was observed. Similarly, heterocyclic ketones (2-pyridyl, 2-furyl) maintained their reactivity with DTT. In an attempt to make the inhibitors more compact, an indenone scaffold was designed. […] It became clear that while small, nonpeptidic α,β-unsaturated ketones such as compound 22 afforded potent […] inhibition of 3CP, this increased reactivity was incompatible with the more complex cellular milieu present in the cytopathic effect assay.

[2] = Table 1, Serotype 14, NI = no inhibition

Row | Compound | EC50 (HRV-14) | CC50 [1] | also measured
1 | CCOC(=O)C=Cc1cc(CN2CCN(c3ccccc3C#N)CC2)cc(C(N)=O)c1 [Compound 30, 3-{3-Carbamoyl-5-[4-(2-cyano-phenyl)-piperazin-1-ylmethyl]-phenyl}-acrylicacid ethyl ester] | 0.6 µM | 79 µM | kinact/KI (HRV-14 3CP; Table 3, Serotype 14): 139 M⁻¹ s⁻¹; antiviral activity (in words) (HRV-14): submicromolar antiviral activity; EC50 (HRV-14; read-out: antiviral EC50): 0.6 µM
2 | CCOC(=O)C=Cc1cc(OCc2ccccc2)cc(C(N)=O)c1 [Compound 12, 3-(3-Benzyloxy-5-carbamoyl-phenyl)-acrylic acid ethyl ester] | – | – | melting point: 193 to 194 °C
3 | COc1ccc(C(=O)/C=C/c2cccc(C(N)=O)c2)cc1 [Compound 19, 3-[3-(4-Methoxy-phenyl)-oxo-propenyl] benzamide] | > 22 µM | > 22 µM | DTT inhib. (3CP): yes
4 | CCOC(=O)C=Cc1cc(CN(CCC(=O)OCC)Cc2ccccc2)cc(C(N)=O)c1 [Compound 23, 3-(3-{[Benzyl-(2-ethoxycarbonyl-ethyl)-amino]-methyl}-5-carbamoyl-phenyl)-acrylic acid ethylester] | 10 µM | > 100 µM | kinact/KI (HRV-14 3CP; Table 3, Serotype 14): 568 M⁻¹ s⁻¹
5 | CCOC(=O)C=Cc1cc(CN2CCN(C(=O)OCC)CC2)cc(C(N)=O)c1 [Compound 28, 4-[3-Carbamoyl-5-(2-ethoxycarbonyl-vinyl)-benzyl]-piperazine-1-carboxylic acid ethyl ester] | 1.8 µM | > 100 µM | kinact/KI (HRV-14 3CP): 130 M⁻¹ s⁻¹
6 | NC(=O)c1ccc2c(c1)C=CC2=O [Compound 22, 1-Oxo-1H-indene-5-carboxylic acid amide] | > 20 µM | > 20 µM | melting point: 275 °C (dec.); DTT inhib. (3CP): yes; inactivation by DTT (in words) (3CP; upon incubation with DTT): inactivated by DTT; antiviral activity (in words) (HRV-14): no antiviral activity
7 | NC(=O)c1cccc(C=CC(=O)OCCc2ccccc2)c1 [Compound 5, 3-(3-Carbamoyl-phenyl)-acrylic acid phenethyl ester] | 100 µM | > 320 µM | kinact/KI (HRV-14 3CP; [2]): 83 M⁻¹ s⁻¹
8 | NC(=O)c1cccc(C=CC(=O)OCc2ccccc2)c1 [Compound 3, 3-(3-Carbamoyl-phenyl)-adrylic acid benzyl ester] | – | – | CC50 (H1-HeLa cells): > 100 µM; Kobs/[I] (HRV-14 3CP; [2]): 25 M⁻¹ s⁻¹
9 | CC(=O)C=Cc1cccc(C(N)=O)c1 [Compound 16, 3-(3-Oxo-but-1-enyl)-benzamide] | 32 µM | 40 µM | DTT inhib. (3CP): yes
10 | CCOC(=O)/C(C#N)=C/c1cccc(C(N)=O)c1 [Compound 9, (E)-3-(3-Carbamoyl-phenyl)-2-cyano-acrylic acid ethyl ester] | > 100 µM | > 100 µM | –
11 | NC(=O)c1cccc(C=CC(=O)OCc2cccnc2)c1 [Compound 6, 3-(3-Carbamoyl-phenyl)-acrylic acid pyridin-3-yl methyl ester] | – | – | Kobs/[I] (HRV-14 3CP; [2]): 57 M⁻¹ s⁻¹
12 | CCOC(=O)/C=C/c1cc(O)cc(C(N)=O)c1 [Compound 11, 3-(3-Carbamoyl-5-hydroxy-phenyl)-acrylic acid ethyl ester] | > 100 µM | > 100 µM | melting point: 200 to 202 °C; kinact/KI (HRV-14 3CP; [2]): 47 M⁻¹ s⁻¹
13 | CCOC(=O)/C=C/c1cc(CO)cc(C(N)=O)c1 [Compound 13, 3-(3-Carbamoyl-5-hydroxymethyl-phenyl)-acrylic acid ethyl ester] | > 100 µM | > 100 µM | kinact/KI (HRV-14 3CP; [2]): 54 M⁻¹ s⁻¹
14 | NC(=O)c1cccc(C=O)c1 [Compound 1a, 3-Carbamoyl-benzaldehyde] | – | – | Ki (HRV-14 3CP): 104 µM
15 | 3-[3-Carbamoyl-5-(5-pyridin-2-yl-[1,3,4]oxaldiazol-2-ylsulfanylmethyl-phenyl]-acrylic acid ethyl ester [Compound 25] | – | – | Kobs/[I] (HRV-14 3CP; Table 3, Serotype 14): 286 M⁻¹ s⁻¹
16 | CN(C)c1ccc(C(=O)/C=C/c2cccc(C(N)=O)c2)cc1 [Compound 18, 3-[3-(4-Dimethylamino-phenyl)-oxo-propenyl] benzamide] | > 15 µM | > 15 µM | DTT inhib. (3CP): yes
17 | CCOC(=O)/C=C/c1cccc(C(N)=O)c1 [Compound 1, 3-(3-Carbamoylphenyl)-acrylic acid ethyl ester] | 15.9 µM | > 320 µM | melting point: 168 to 170 °C; kinact/KI (HRV-14 3CP): 52 M⁻¹ s⁻¹
18 | CCOC(=O)/C=C/c1cc(C(N)=O)ccc1C [Compound 10, 6-Methyl-3-(3-carbamoylphenyl)-acrylic acid ethyl ester] | > 100 µM | > 100 µM | % inhibition (printed in the Kobs/[I] column) (HRV-14 3CP; @ 25 (concentration unit not given), Serotype 14): 10% @ 25
19 | NC(=O)c1cccc(C=CC(=O)c2ccccn2)c1 [Compound 20, 3-(3-Oxo-3-pyridin-2-yl-propenyl)-benzamide] | > 50 µM | > 50 µM | DTT inhib. (3CP): yes
20 | CCOC(=O)C=Cc1cc(CN2CCN(c3ccccn3)CC2)cc(C(N)=O)c1 [Compound 26, 3-[3-Carbamoyl-5-(4-pyridin-2-yl-piperizin-1-methyl)-phenyl]-acrylic acid ethyl ester] | – | – | Kobs/[I] (HRV-14 3CP; Table 3, Serotype 14): 269 M⁻¹ s⁻¹
21 | NC(=O)c1cccc(C=CC(=O)c2ccco2)c1 [Compound 21, 3-(3-Furan-2-yl-3-oxo-propenyl)-benzamide] | > 71 µM | > 71 µM | DTT inhib. (3CP): yes
22 | CCOC(=O)C=Cc1ccc(OCc2ccccc2)c(C(N)=O)c1 [Compound 15, 3-(4-Benzyloxy-3-carbamoyl-phenyl)-acrylic acid ethyl ester] | > 320 µM | > 320 µM | kinact/KI (HRV-14 3CP; [2]): 30 M⁻¹ s⁻¹
23 | NC(=O)c1cccc(C=CC(=O)c2ccccc2)c1 [Compound 17, 3-(3-Oxo-3-phenyl-prop-1-enyl)-benzamide] | 28 µM | > 28 µM | DTT inhib. (3CP): yes
24 | NC(=O)c1cccc(C=CC(=O)OCCO)c1 [Compound 4, 3-(3-Carbamoyl-phenyl)-acrylic acid 2-hydroxyethyl ester] | 20 µM | > 320 µM | kinact/KI (HRV-14 3CP; [2]): 42 M⁻¹ s⁻¹
25 | CCOC(=O)C=Cc1cc(CN2CCN(c3ncccn3)CC2)cc(C(N)=O)c1 [Compound 29, 3-{3-Carbamoyl-5-(4-pyrimidin-2-yl-piperazin-1-ylmethyl)-phenyl}-acrylic acid ethyl ester] | – | > 100 µM | kinact/KI (HRV-14 3CP): 163 M⁻¹ s⁻¹; EC50 (HRV-14; Table 3, Serotype 14, read-out: EC50): 1 µM
26 | COC(=O)/C=C/c1cccc(C(N)=O)c1 [Compound 2, 3-(3-Carbamoyl-phenyl)-acrylic acid methyl ester] | 150 µM | > 320 µM | kinact/KI (HRV-14 3CP; [2]): 28 M⁻¹ s⁻¹; fold less active in the antiviral assay relative to ethyl ester compound 1 (HRV-14): 10 fold
